According to the supplement of paper PMC10307832:

Key:
Experiment in all cases: relative viability (nuclei count vs DMSO), 5 days (fraction); higher = more cells survive
[1] = compound: CC1=CC(=NN1)NC2=CC(=NC(=N2)/C=C/C3=CC=CC=C3)N4CCN(CC4)C + CS(=O)(=O)N1CCN(Cc2cc3nc(-c4cccc5[nH]ncc45)nc(N4CCOCC4)c3s2)CC1 [Pictilisib] (partner 1 µM)
Method in brief: (§1)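 Five library-drug doses in √10 steps were combined with a fixed anchor-drug dose, or a single drug was given alone, by pin tool to lung cancer cell lines in 1536-well plates the day after seeding. Nuclei were stained and counted after 5 days. Relative viability is the nuclei count in treated wells over that in vehicle wells, taken as the median of duplicate plates.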

Bortezomib + AZD7762 = compound: CC(C)C[C@H](NC(=O)[C@H](Cc1ccccc1)NC(=O)c1cnccn1)B(O)O [Bortezomib] + NC(=O)Nc1cc(-c2cccc(F)c2)sc1C(=O)N[C@H]1CCCNC1 [AZD7762] (partner 0.2 µM)
Method in brief: as §1

Bortezomib + OSI-027 = compound: CC(C)C[C@H](NC(=O)[C@H](Cc1ccccc1)NC(=O)c1cnccn1)B(O)O [Bortezomib] + COc1cccc2cc(-c3nc([C@H]4CC[C@H](C(=O)O)CC4)n4ncnc(N)c34)[nH]c12 [OSI-027] (partner 0.5 µM)
Method in brief: as §1

[2] = compound: CC1=CC(=NN1)NC2=CC(=NC(=N2)/C=C/C3=CC=CC=C3)N4CCN(CC4)C + C[C@]1(O)C[C@@H](c2nc(-c3ccc4ccc(-c5ccccc5)nc4c3)c3c(N)nccn32)C1 [Linsitinib] (partner 1 µM)
Method in brief: as §1

Cell Line	relative viability ([1]; first compound 0.08 µM)	relative viability ([1]; first compound 0.253 µM)	relative viability ([1]; first compound 0.8 µM)	relative viability ([1]; first compound 2.53 µM)	relative viability ([1]; first compound 8 µM)	relative viability (Bortezomib + AZD7762; first compound 0.0002 µM)	relative viability (Bortezomib + AZD7762; first compound 0.000632 µM)	relative viability (Bortezomib + AZD7762; first compound 0.002 µM)	relative viability (Bortezomib + AZD7762; first compound 0.006325 µM)	relative viability (Bortezomib + AZD7762; first compound 0.02 µM)	relative viability (Bortezomib + OSI-027; first compound 0.0002 µM)	relative viability (Bortezomib + OSI-027; first compound 0.000632 µM)	relative viability (Bortezomib + OSI-027; first compound 0.002 µM)	relative viability (Bortezomib + OSI-027; first compound 0.006325 µM)	relative viability (Bortezomib + OSI-027; first compound 0.02 µM)	relative viability ([2]; first compound 0.08 µM)	relative viability ([2]; first compound 0.253 µM)	relative viability ([2]; first compound 0.8 µM)	relative viability ([2]; first compound 2.53 µM)	relative viability ([2]; first compound 8 µM)
EPLC-272H	0.286	0.286	0.31	0.0769	0.152	0.188	0.163	1.2	0.153	0.0636	0.306	0.282	0.286	0.125	0.106	1.11	1.32	1.06	0.675	0.367
LK-2	0.464	0.694	0.54	0.279	0.186	0.335	0.387	0.533	0.449	0.0966	0.223	0.174	0.175	0.175	0.177	0.522	0.876	0.75	0.31	0.104
HCC-827	0.961	1.02	1.07	0.747	0.8	0.267	0.259	0.18	0.215	0.199	0.837	0.747	0.859	0.236	0.103	0.955	1.06	0.932	0.814	0.635
NCI-H1993	0.817		0.744	0.808	0.599	0.838	0.877		0.333	0.324	0.508	0.552	0.546	0.47	0.53	0.842		0.617	0.594	0.55
NCI-H647	0.438	0.48	0.377	0.0644	0.051	0.405	0.447	0.419	0.0227	0.0188	0.574	0.437	0.483	0.0304	0.0382	1.06	1.25	1.21	0.0813	0.0644
NCI-H460	0.32	0.427	0.383	0.221	0.036	0.55	0.706	0.724	0.672	0.044	0.561	0.478	0.64	0.126	0.021	0.668	0.869	0.539	0.0075	0.0036
EMC-BAC-2	0.507	0.589	0.468	0.325	0.154	1.09	1.04	1.04	0.573	0.436	0.359	0.296	0.321	0.206	0.181	0.821	0.91	0.77	0.594	0.204
NCI-H23	0.462	0.48	0.382	0.296	0.134	0.17		0.308	0.25	0.0879	0.579	0.335	0.542	0.282	0.138	0.61	0.641	0.58	0.313	0.163
A-427	0.836	0.247	0.741	0.401	0.11	0.719	0.872	0.763	0.197	0.146	0.346	0.327	0.503	0.182	0.132	1.2	1.16	1.09	0.87	0.305
ABC-1	0.764	0.76	0.792	0.284	0.173		0.712	0.184	0.223	0.191	0.476	0.296	0.193	0.183	0.2	0.787	0.983	0.724	0.581	0.173
NCI-H322M	0.456	0.52	0.463	0.219	0.242	0.539	0.636	0.654	0.385	0.393	0.524		0.519	0.288	0.27	0.89	0.965	0.895	0.515	0.323
NCI-H2085	0.437	0.39	0.431	0.18	0.236	1.04	0.907	1.07	0.881	0.225	0.684	0.675	0.787	0.286	0.204	0.796	0.95	0.931	0.502	0.289
NCI-H2087	0.828	0.542	0.877	0.447	0.141	1.3	1.23	1.19	0.0709	0.0403	0.667	0.401	0.224	0.0576	0.0622	0.982	0.909	0.965	0.723	0.203
HCC-366	0.148	0.156	0.136	0.112	0.0428	0.221	0.331	0.401	0.37	0.0238	0.821	0.539	1.1	0.742	0.047	0.478	1.13	0.64	0.102	0.0084
NCI-H2126	0.499	0.461	0.522	0.482	0.338	1	1.01	0.968	0.942	0.516	0.737	0.652	0.622	0.62	0.663	0.647	0.72	0.716	0.621	0.421
HCC-78	0.219	0.216	0.214	0.202	0.108	0.591	0.603	0.453	0.616	0.238	0.36	0.352	0.372	0.385	0.263	0.42	0.568	0.494	0.391	0.152
